{"source": "patent US6521814B1", "about": "“Use of ligands for treatment of diseases responsive to retinoids” (Institut National de la Santa et de la Recherche Medicale, priority 1997, dated 2003)", "key": {"WT F9 cells [1]": {"system": "WT F9 cells", "test": "Apoptosis of F9 cells (Hoechst 33258 staining, FACS)", "assay_type": "cell-based, murine", "details": "1 μM", "procedure": "(§1) Apoptosis was analyzed by both Hoechst staining of nuclei and FACS® analysis, as previously described (Clifford, J., et al., EMBO J. 15:4142-4155 (1996))."}, "RARγ−/− F9 cells [2]": {"system": "RARγ−/− F9 cells", "test": "Apoptosis of F9 cells (Hoechst 33258 staining, FACS)", "assay_type": "cell-based, murine", "details": "1 μM, 6 d", "procedure": "as §1"}, "RARγ−/− F9 cells [3]": {"system": "RARγ−/− F9 cells", "test": "Morphological differentiation of F9 cell aggregates into visceral endoderm (VE)-like cells (morphology, RT-PCR of markers)", "assay_type": "cell-based, murine", "procedure": "(§2) F9 cells were cultured and induced to differentiate into primitive, parietal and visceral endoderm-like cells as previously described (Boylan, J., et al., Proc. Natl. Acad. Sci. USA 90:9601-9605 (1993); Clifford, J., et al., EMBO J. 15:4142-4155 (1996)).\n(§3) RNA preparation, RT-PCR, and Southern blotting were performed as previously described (Bouillet, P., et al., Dev. Biol. 170:420-433 (1995); Roy, B., et al., Mol. Cell. Biol. 15:6481-6487 (1995)). The PCR primers and end-labeled oligonucleotide probes for collagen IVα1, laminin B1, α-fetoprotein (AFP), and 36B4, were described previously (Clifford, J., et al ., EMBO J. 15:4142-4155 (1996)). Transcript levels were quantified using a BAS 2000 bioimaging analyzer (Fuji Ltd., Tokyo, Japan), and were normalized to the corresponding 36B4 signals."}, "RXRα−/−/RARγ−/− F9 cells [4]": {"system": "RXRα−/−/RARγ−/− F9 cells", "test": "Apoptosis of F9 cells (Hoechst 33258 staining, FACS)", "assay_type": "cell-based, murine", "details": "1 μM, after 5 d"}, "RARα−/− F9 cells [5]": {"system": "RARα−/− F9 cells", "test": "Apoptosis of F9 cells (Hoechst 33258 staining, FACS)", "assay_type": "cell-based, murine", "details": "1 μM, 6 d", "procedure": "as §1"}, "WT F9 cells [6]": {"system": "WT F9 cells", "test": "Morphological differentiation of F9 cell aggregates into visceral endoderm (VE)-like cells (morphology, RT-PCR of markers)", "assay_type": "cell-based, murine", "details": "50 nM, 10 d", "description": "(§4) Similarly, after 10 d of treatment, >80% of the outer layer of RARα^−/− and RXRα^−/−/RARα^−/− cell aggregates differentiated into VE-like cells, which were indistinguishable from those of WT and RXRα^−/− cells (FIG. 23A, compare f with panels b and d; and Table 9). […] To exclude the possibility that this very poor differentiation of the RXRα^−/−/RARγ^−/− cells could be due to some clonal variation, rather than the presence of the RXRα-null mutation in the RARγ-null background, we expressed the RXRα cDNA in RXRα^−/−/RARγ^−/− cells.\nas §2, §3"}, "RARα−/− F9 cells [7]": {"system": "RARα−/− F9 cells", "test": "Morphological differentiation of F9 cell aggregates into visceral endoderm (VE)-like cells (morphology, RT-PCR of markers)", "assay_type": "cell-based, murine", "details": "50 nM", "description": "as §4, §2, §3"}, "RXRα−/−/RARγ−/− F9 cells [8]": {"system": "RXRα−/−/RARγ−/− F9 cells", "test": "Proliferation of F9 cells in monolayer culture (cell counting, [3H]thymidine incorporation, cell cycle FACS)", "assay_type": "cell-based, murine", "details": "1 μM"}, "D2R promoter": {"system": "D2R promoter", "test": "D2R promoter CAT reporter assay in transfected COS-1 cells, reporter alone", "assay_type": "cell-based, rat", "details": "C1 reporter-transfected COS-1 cells, no receptor vector; 10^−7 M", "description": "Expression Vectors. The C1 reporter construct was obtained by subcloning the HindIII fragment spanning the 5 ′ promoter region of the D2R gene (positions −495 to +273), in the reporter plasmid pBLCAT3 (Luckow, B. & Schütz, G., Nucleic Acids Res. 15:5490 (1987)). The C2 reporter plasmid was constructed by subcloning the SmaI-XhoI fragment (positions −76 to +273) in the same position. The C3 and C4 reporters were generated by cloning a 29 bp synthetic oligonucleotide corresponding, respectively, to the natural rat D2R RARE sequence and the mutated one into pBLCAT2 (Luckow, B. & Schütz, G., Nucleic Acids Res. 15:5490 (1987)). The polylinker in pBLCAT2 is located upstream of the herpes simplex virus 1 (HSV1) thymidine kinase (TK) promoter, from position −105 to +51. To measure transfection efficiency the plasmid pCH110 carrying the β-galactosidase gene (Pharmacia) was used. Mouse […], as well as mouse RXRα, β and γ expression vectors were derived from the parental pSG5 vector (Green, S., et al., Nucleic Acids Res. 16:369 (1988)).\nCOS-1 cells were used for transient transfection assays. Cells were grown in Dulbecco's modified Eagle's medium supplemented with 5% fetal calf serum.\nSeveral hours before transfection, the medium was replaced with fresh medium containing 5% charcoal-treated FCS. […]"}}}
{"smiles": "CC1=C(/C=C/C(C)=C/C=C/C(C)=C/C(=O)O)C(C)(C)CCC1", "note": "[tRA, all-trans retinoic acid]", "values": [{"measurement": "proportion of apoptotic nuclei and subcellular fragments (Hoechst 33258)", "setting": "WT F9 cells [1]; 6 d", "value": "++ (>10%)"}, {"measurement": "sub-2N size DNA-containing particles ('apoptotic bodies'), FACS", "setting": "WT F9 cells [1]; after 5 d", "value": "appeared"}, {"measurement": "proportion of apoptotic nuclei and subcellular fragments (Hoechst 33258)", "setting": "RARγ−/− F9 cells [2]", "value": "+ (>1-10%)"}, {"measurement": "induction of AFP mRNA", "setting": "RARγ−/− F9 cells [3]; RARγ−/− aggregates, 50 nM, 10 d", "value": "hardly detectable"}, {"measurement": "proportion of outer layer of cells displaying VE morphology", "setting": "RARγ−/− F9 cells [3]; RARγ−/−, 50 nM, 10 d", "value": "± (not more than 10%)"}, {"measurement": "outer layer of cells exhibiting VE conversion", "setting": "RARγ−/− F9 cells [3]; RARγ−/−, 50 nM, after 10 d", "value": "< 10", "unit": "%"}, {"measurement": "proportion of outer layer of cells displaying VE morphology", "setting": "RARγ−/− F9 cells [3]; RARγ−/−, 50 nM, after 14 d of treatment", "value": "+++ (more than 80%)"}, {"measurement": "VE differentiation", "setting": "RARγ−/− F9 cells [3]; RARγ−/−, after 14 d of treatment", "value": "full VE differentiation was eventually achieved"}, {"measurement": "sub-2N size DNA-containing particles ('apoptotic bodies'), FACS", "setting": "RXRα−/−/RARγ−/− F9 cells [4]", "value": "not detected"}, {"measurement": "proportion of apoptotic nuclei and subcellular fragments (Hoechst 33258)", "setting": "RARα−/− F9 cells [5]", "value": "++ (>10%)"}, {"measurement": "induction of collagen type IVα1, laminin B1 and AFP mRNA", "setting": "WT F9 cells [6]; WT aggregates", "value": "similarly induced"}, {"measurement": "proportion of outer layer of cells displaying VE morphology", "setting": "WT F9 cells [6]; WT", "value": "+++ (more than 80%)"}, {"measurement": "proportion of outer layer of cells displaying VE morphology", "setting": "RARα−/− F9 cells [7]; 10 d", "value": "+++ (more than 80%)"}, {"measurement": "outer layer of cell aggregates differentiated into VE-like cells", "setting": "RARα−/− F9 cells [7]; after 10 d", "value": "> 80", "unit": "%"}, {"measurement": "inhibition of [3H]thymidine incorporation", "setting": "RXRα−/−/RARγ−/− F9 cells [8]; 4 d", "value": "no inhibition"}, {"measurement": "cell cycle profile (FACS)", "setting": "RXRα−/−/RARγ−/− F9 cells [8]; 5 d", "value": "not significantly affected"}, {"measurement": "effect on number of cells (cell counting)", "setting": "RXRα−/−/RARγ−/− F9 cells [8]; 6 d", "value": "did not reduce, but slightly increased"}, {"measurement": "changes in CAT activity", "setting": "D2R promoter", "value": "no significant changes"}]}
